Data taken from patent US10287265B2, “Enantiomers of 8-hydroxyquinoline derivatives and the synthesis thereof” (AVIDIN Co. Ltd., priority 2015, dated 2019).
Entries after “also recorded” stand apart in the source; their conditions may differ.

Key:
EPO gene = assay: Erythropoietin gene expression in hippocampus and cortex of aged animals, chronic treatment, qRT-PCR; type: in vivo, mouse; settings: 18-month-old C57BL/6 female mice, 20 mg/l in drinking water for four months
Description: Twenty-four 18-month-old C57BL/6 female mice (Innovo Ltd., Budapest, Hungary) were divided into two groups randomly: Group 1—untreated control, Group 2—treated with the R-enantiomer according to Example 2, administered in drinking water (20 mg/l) for four months. From both groups, 10-10 mice were sacrificed by CO2 inhalation. […]
To study gene expression, total RNA was extracted from the brain tissues with Accuzol™ Total RNA Extraction Solution (Bioneer, Daejeon, South Korea), according to the manufacturer's protocol. cDNA transcription was carried out with the High Capacity cDNA Reverse Transcription Kit (Life Technologies, Foster City, Calif., USA). Expression of the gene coding for erythropoietin, the EPO gene was determined by qRT-PCR (with HPRT gene serving as a control) with the method and instrument described in Example 33. but here, mouse-specific UPL probes (HPRT: 95, EPO: 16) and primer pairs were applied (mouse HPRT1: 5′-tcctcctcagaccgctttt-3′, mouse HPRT2: 5′-[…]-3′; mouse EPO1: 5′-[…]-3′, mouse EPO2: 5′-cttctgcacaacccatcgt-3′).

human caspase 3 enzyme = target: T1, human caspase 3 enzyme (Homo sapiens, UniProt P42574); assay: Caspase 3 peptidase activity, Ac-DEVD-AMC substrate, fluorescence; type: biochemical
T1 construct: host or cells: E. coli
T1 sequence (P42574 29-175 limits assumed): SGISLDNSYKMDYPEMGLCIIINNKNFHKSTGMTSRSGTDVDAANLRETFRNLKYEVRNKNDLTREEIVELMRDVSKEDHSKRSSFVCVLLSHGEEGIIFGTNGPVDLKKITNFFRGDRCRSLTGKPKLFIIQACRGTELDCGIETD
T1 sequence (P42574 176-277 limits assumed): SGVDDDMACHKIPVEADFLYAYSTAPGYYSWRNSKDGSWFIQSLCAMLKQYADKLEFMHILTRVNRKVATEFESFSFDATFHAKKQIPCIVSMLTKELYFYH
Description: Throughout the experiments, human caspase 3 enzyme produced in E. coli was used as previously described (Mittl PRE, Marco S D, Krebs J F, Karanewsky D S, Priestle J P, Tomaselli K J and Grutter M G (1997) Structure of Recombinant Human CPP32 in Complex with the Tetrapeptide Acetyl-Asp-Val-Ala-Asp Fluoromethyl Ketone. J Biol Chem. 272: 6539-6547). […] After the addition of […] Ac-DEVD-AMC substrate, the reaction ran for 60 min. The amount of generated AMC (7-amino-4-methylcoumarine), which gives information about the enzyme activity, was detected by fluorescence at 360/465 nm.

erythropoietin protein = assay: Erythropoietin protein expression in hippocampus and cortex of aged animals, chronic treatment, ELISA; type: in vivo, mouse; settings: 18-month-old C57BL/6 female mice, 20 mg/l in drinking water for four months
Description: Twenty-four 18-month-old female C57BL/6 mice (Innovo Ltd., Budapest, Hungary) were treated according to the experimental setup described in Example 34. in two groups: Group 1—control group given normal drinking water, Group 2—treated with the R-enantiomer according to Example 2, administered in drinking water (20 mg/l) for four months. Brain preparation was carried out under conditions described in Example 34. Brain samples were washed with 1×PBS to remove blood, then tissues were homogenized in 1×PBS and for 3 days, they were held at −20° C. overnight and 25° C. at daytime every day. After the third round of thawing, samples were centrifuged (5 min, 5000 rpm) and the supernatant was collected for further protein expression studies. Determination of erythropoietin levels of samples was done with Quantikine® ELISA Mouse Erythropoetin (R&D Systems, cat. no.: MEPOOB) according to the manufacturer's protocol. At the end of the test, the developed colour was measured with a THERMO-LABSYSTEMS Multiskan FC Absorbance Plate Reader at 450 nm. Results obtained through ELISA and measured at 450 nm were compared to standard dilution series of purified mouse EPO. Values (pg/ml) obtained based on the dilution series were compared to actual protein content of tissues. Protein content of tissue homogenates was measured with Nanodrop-1000 adjusted for BSA protein, at 280 nm.

## Cc1ccnc(N[C@H](c2ccc(C(F)(F)F)cc2)c2ccc3cccnc3c2O)n1 [Example 2, 7-[(R)-[(4-Methylpyrimidin-2-yl)amino][4-(trifluoromethyl)phenyl]methyl]quinolin-8-ol]
EPO gene
  EPO gene expression in hippocampus and cortex compared to untreated control mice: resulted increased EPO gene activity in cerebral cortex and hippocampus; also recorded: induced both hippocampal and cortical EPO expression
Human caspase 3 enzyme
  inhibition of caspase-3 enzyme (concentration range in words): inhibits in micromolar concentration
Human caspase 3 enzyme; applied concentration of 10 μM
  reduction of the activity of caspase 3 enzyme: 74%
Erythropoietin protein
  EPO protein levels in hippocampal and cortical samples compared to untreated control mice: induced increased EPO protein levels in both hippocampal and cortical samples
